Reference: publication PMC6021032, “Antimycobacterial activity of nitrogen heterocycles derivatives: 7-(pyridine-4-yl)-indolizine derivatives. Part VII^8–12” (Journal of Enzyme Inhibition and Medicinal Chemistry, 2017)
Like-named read-outs stand apart in the source and are kept apart here.

Key:
[1] = test system: human liver cells (HepG2); test: HepG2 cytotoxicity (CellTiter-Glo); type: cell-based; details: read-out: IC50 (50% loss of viability), 72 h
[2] = test system: Mycobacterium tuberculosis H37Rv; test: Primary screen (Cycle 1): MIC, IC50, IC90 under aerobic conditions; type: cell-based
[3] = test system: THP-1 cell line infected with Mtb; test: Intracellular activity assay, luminescence; type: cell-based, Mycobacterium tuberculosis; details: Mycobacterium tuberculosis, Mtb-infected THP-1 cells, 72 h
Description: Since the overall efficacy of any anti TB drug will be improved by its ability to traffic into the macrophage phagosome containing replicating bacteria, we evaluated the intracellular activity of compounds[24]. This was measured by using THP-1 cell line infected with Mtb. Infected cells were exposed to compounds for 72 h and viable bacterial counts were measured using luminescence as a measure of intracellular growth.
Assay (Promega) which uses ATP as an indicator of cell viability. Relative luminescent units (RLU) were measured using a Biotek Synergy 4 plate reader. The dose response curve was fitted using the Levenberg–Marquardt algorithm. The IC50 was defined as the compound […]
Intracellular Activity Assay
The activity of compounds against intracellular bacteria was determined by measuring viability in infected THP-1 cell after 3 days in the presence of test compounds. Compounds were prepared as 10-point three-fold serial dilutions in DMSO. The highest concentration of […]
THP-1 cells were cultured in complete RPMI and differentiated into macrophage-like cells using 80 nM PMA overnight at 37°C, 5% CO2. THP-1 cells were infected with a luminescent strain of H37Rv (which constitutively expresses luxABCDE) at a multiplicity of infection of 1 and incubated overnight at 37°C, 5% CO2. Infected cells were recovered using Accutase/EDTA solution, washed twice with PBS to remove extracellular bacteria and seeded into assay pates. Compound dilutions were added to a final DMSO concentration of 0.5%.
Assay plates were incubated for 72 h at 37°C, 5% CO2. Each run included isoniazid as a control. Relative luminescent units (RLU) were measured using a Biotek Synergy 2 plate reader. The dose response curve was fitted using the Levenberg–Marquardt algorithm. The […]
inhibition of growth respectively.
3. Cycle 3 – Absorption, distribution, metabolism, excretion and toxicity (ADMET)
3.1. Plasma Protein Binding Assay
Compounds were added to human plasma at a fixed concentration of 5 µM. The mixture was dialyzed in a RED device (Rapid Equilibrium Dialysis, Pierce) against PBS and incubated on an orbital shaker for 4 h at 37 °C. Aliquots from plasma and PBS sides were collected; an equal volume of PBS was added to the plasma sample, and an equal volume of plasma was added to the PBS sample. Three volumes of methanol (containing the internal binding standard propranolol) was added to precipitate the proteins and release the compound.
Each compound was tested in duplicate. Samples were centrifuged, the supernatant was […]

[4] = biological target: T1, CYP3A4 (Homo sapiens, UniProt P08684); test: Cytochrome P450 inhibition in human liver microsomes; type: in vitro ADME
T1 construct: Compounds were incubated with human liver; from tissue; host or cells: human liver microsomes

[5] = Mycobacterium tuberculosis, M. tuberculosis H37Rv, aerobic conditions, primary screen

T1 sequence (P08684 whole entry): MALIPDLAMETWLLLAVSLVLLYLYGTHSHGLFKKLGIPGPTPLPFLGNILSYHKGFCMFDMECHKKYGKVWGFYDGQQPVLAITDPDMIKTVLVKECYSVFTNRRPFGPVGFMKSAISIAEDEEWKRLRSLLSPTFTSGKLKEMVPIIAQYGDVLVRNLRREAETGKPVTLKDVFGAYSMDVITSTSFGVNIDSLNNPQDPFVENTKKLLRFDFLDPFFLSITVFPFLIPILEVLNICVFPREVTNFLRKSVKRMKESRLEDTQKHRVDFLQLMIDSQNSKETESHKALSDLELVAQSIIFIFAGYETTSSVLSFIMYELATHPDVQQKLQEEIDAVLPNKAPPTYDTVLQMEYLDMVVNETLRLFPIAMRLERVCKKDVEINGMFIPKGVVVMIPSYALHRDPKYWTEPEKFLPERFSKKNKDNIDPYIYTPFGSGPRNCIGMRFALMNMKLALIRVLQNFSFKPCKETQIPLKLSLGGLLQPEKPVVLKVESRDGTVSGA

Compound CCOC(=O)c1cc(C(=O)c2ccc(Cl)cc2)n2ccc(-c3cc[n+](CC(=O)c4ccc(C)cc4)cc3)cc12 [Compound 6i] has an IC50 [1] of 7 µM, an MIC ([2]; M. tuberculosis H37Rv, aerobic conditions, primary screen) of 8.0 µM and an MIC ([2]; MIC value taken from the first MIC assay) of 8 µM. For the same compound, the IC50 [2, 5] was 7.2 µM, the IC90 [2, 5] was 8.2 µM and the MIC [2, 5] was 8 µM. For the same compound, the IC50 ([3]; read-out: IC50 intracell) was 10 µM, the IC90 ([3]; read-out: IC90 intracell) was 48 µM and the “IC50 CYP3A4-Midazolam” value ([4]; probe substrate midazolam) was “moderate inhibition”. The IC50 ([4]; probe substrate midazolam, read-out: IC50 CYP3A4-Midazolam) was 0.48 µM, the “IC50 CYP3A4-Testosterone” value ([4]; probe substrate testosterone) was “high inhibition” and the IC50 ([4]; probe substrate testosterone, read-out: IC50 CYP3A4-Testosterone) was 0.081 µM.
